Laboratory results: US12083227B2, “Solid pharmaceutical formulations for treating endometriosis, uterine fibroids, polycystic ovary syndrome or adenomyosis” (priority 2017, dated 2024)

What was measured:
[1] = drug interaction studies: co-administered drug in the presence of elagolix
[2] = gel formation and pH of elagolix sodium solution; assay type: physicochemical
Protocol: 1.23 gram of elagolix sodium was added to 2 mL purified water in a test tube. […] To facilitate continued dissolution, the solution was stirred and the gel was dispersed continuously using a spatula. The solution pH was measured with undissolved solid present using a calibrated pH meter.

[3] = Ethinyl estradiol 35 mcg and triphasic norgestimate 0.18/0.215/0.25 mg once daily, elagolix 150 mg once daily, N 21
[4] = 0.35 mg once daily × 112 days, elagolix 150 mg once daily × 56 days, N 32
[5] = 0.5 mg single dose, elagolix 200 mg twice daily × 10 days, N 11
[6] = 20 mg once daily, elagolix 300 mg twice daily × 7 days, N 10
[7] = 2 mg single dose, elagolix 150 mg once daily × 13 days, N 11
[8] = 2 mg single dose, elagolix 300 mg twice daily × 11 days, N 20

In the case of C#C[C@]1(O)CC[C@H]2[C@@H]3CCC4=CC(=NO)CC[C@@H]4[C@H]3CC[C@@]21CC (mixture of isomers) [Norelgestromin], the “AUC Ratio (with elagolix vs. medication alone)” value (“AUC Ratio” for short) [1, 3] is reported as 0.85 and the “Cmax Ratio (with elagolix vs. medication alone)” value (from here on “Cmax Ratio”) [1, 3] is reported as 0.87.

For C#C[C@]1(O)CC[C@H]2[C@@H]3CCc4cc(O)ccc4[C@H]3CC[C@@]21C [Ethinyl Estradiol], the “AUC Ratio” value [1, 3] was 1.30 and the “Cmax Ratio” value [1, 3] was 1.15.

With COc1cccc(-c2c(C)n(Cc3c(F)cccc3C(F)(F)F)c(=O)n(C[C@H](NCCCC(=O)[O-])c3ccccc3)c2=O)c1F.[Na+] [elagolix sodium, sodium 4-((R)-2-[5-(2-fluoro-3-methoxy-phenyl)-3-(2-fluoro-6-trifluoromethyl-benzyl)-4-methyl-2,6-dioxo-3,6-dihydro-2H-pyrimidin-1-yl]-1-phenyl-ethylamino)butanoate] the “gel formation during dissolution” value ([2]; 1.23 gram added to 2 mL purified water) was “started to form gel” and the “pH value of the solution” value ([2]; 1.23 gram in 2 mL purified water, undissolved solid present, 20° C.) was 9.80.

For C#C[C@]1(O)CC[C@H]2[C@@H]3CCC4=CC(=O)CC[C@@H]4[C@H]3CC[C@@]21C [Norethindrone], the “AUC Ratio” value [1, 4] was 0.88 and the “Cmax Ratio” value [1, 4] was 0.95.

In the case of C#CC1(O)CC[C@H]2[C@@H]3CCC4=CC(=O)CC[C@@H]4[C@H]3CC[C@@]21CC (mixture of isomers) [Norgestrel], the “AUC Ratio” value [1, 3] is reported as 0.92 and the “Cmax Ratio” value [1, 3] is reported as 0.89.

With C[C@H]1O[C@@H](O[C@H]2[C@@H](O)C[C@H](O[C@H]3[C@@H](O)C[C@H](O[C@H]4CC[C@@]5(C)[C@H](CC[C@@H]6[C@@H]5C[C@@H](O)[C@]5(C)[C@@H](C7=CC(=O)OC7)CC[C@]65O)C4)O[C@@H]3C)O[C@@H]2C)C[C@H](O)[C@@H]1O [Digoxin] the “AUC Ratio” value [1, 5] was 1.26 and the “Cmax Ratio” value [1, 5] was 1.71.

In the case of CC(C)c1nc(N(C)S(C)(=O)=O)nc(-c2ccc(F)cc2)c1/C=C/[C@@H](O)C[C@@H](O)CC(=O)O [Rosuvastatin], the “AUC Ratio” value [1, 6] is reported as 0.60 and the “Cmax Ratio” value [1, 6] is reported as 0.99.

For Cc1ncc2n1-c1ccc(Cl)cc1C(c1ccccc1F)=NC2 [Midazolam], the “AUC Ratio” value [1, 7] was 0.65, the “Cmax Ratio” value [1, 7] was 0.81 and the “AUC Ratio” value [1, 8] was 0.46. The “Cmax Ratio” value [1, 8] was 0.56.
